Assay results reported in ChEMBL document CHEMBL1201861, “Genomics of Drug Sensitity in Cancer screening data, Wellcome Trust Sanger Institute”.
pIC50: −log10 of the molar value.

Columns and labels:
Assay in all cases: cells
[1] = system: COLO-800; format: functional, cell-based, Homo sapiens; conditions: Homo sapiens, COLO-800;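 further: growth inhibition of COLO-800 cells, read out with a cell viability assay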
Description: SANGER: Inhibition of human COLO-800 cell growth in a cell viability assay.

[2] = system: K562; format: functional, cell-based, Homo sapiens; conditions: Homo sapiens, K562
Description: SANGER: Inhibition of human K-562 cell growth in a cell viability assay.

[3] = system: NCI-H446; format: functional, cell-based, Homo sapiens; conditions: Homo sapiens, NCI-H446;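 further: growth inhibition of NCI-H446 cells determined by a cell viability assay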
Description: SANGER: Inhibition of human NCI-H446 cell growth in a cell viability assay.

[4] = system: ALL-PO; format: functional, cell-based, Homo sapiens; conditions: Homo sapiens, ALL-PO;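 further: growth inhibition of ALL-PO cells, read out by a cell viability assay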
Description: SANGER: Inhibition of human ALL-PO cell growth in a cell viability assay.

[5] = system: NB5; format: functional, cell-based, Homo sapiens; conditions: Homo sapiens, NB5;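 further: growth inhibition of NB5 cells, read out as cell viability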
Description: SANGER: Inhibition of human NB5 cell growth in a cell viability assay.

[6] = system: Becker; format: functional, cell-based, Homo sapiens; conditions: Homo sapiens, Becker;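 further: growth inhibition of Becker cells, read out with a cell viability assay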
Description: SANGER: Inhibition of human Becker cell growth in a cell viability assay.

[7] = system: NH-12; format: functional, cell-based, Homo sapiens; conditions: Homo sapiens, NH-12;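 further: growth inhibition of NH-12 cells, read out with a cell viability assay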
Description: SANGER: Inhibition of human NH-12 cell growth in a cell viability assay.

[8] = system: NCI-H209; format: functional, cell-based, Homo sapiens; conditions: Homo sapiens, NCI-H209;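 further: growth inhibition of human NCI-H209 cells, measured by a cell viability assay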
Description: SANGER: Inhibition of human NCI-H209 cell growth in a cell viability assay.

[9] = system: SNU1; format: functional, cell-based, Homo sapiens; conditions: Homo sapiens, SNU1;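 further: growth inhibition of human NCI-SNU-1 cells, measured with a cell viability assay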
Description: SANGER: Inhibition of human NCI-SNU-1 cell growth in a cell viability assay.

[10] = system: HH; format: functional, cell-based, Homo sapiens; conditions: Homo sapiens, HH
Description: SANGER: Inhibition of human HH cell growth in a cell viability assay.

[11] = system: RCC10RGB; format: functional, cell-based, Homo sapiens; conditions: Homo sapiens, RCC10RGB;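 further: growth inhibition of human RCC10RGB cells, read out by a cell viability assay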
Description: SANGER: Inhibition of human RCC10RGB cell growth in a cell viability assay.

[12] = system: COR-L88; format: functional, cell-based, Homo sapiens; conditions: Homo sapiens, COR-L88;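 further: growth inhibition of COR-L88 cells, read out with a cell viability assay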
Description: SANGER: Inhibition of human COR-L88 cell growth in a cell viability assay.

[13] = system: SJSA-1; format: functional, cell-based, Homo sapiens; conditions: Homo sapiens, SJSA-1;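 further: growth inhibition of human SJSA-1 cells, read out through a cell viability measurement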
Description: SANGER: Inhibition of human SJSA-1 cell growth in a cell viability assay.

[14] = system: HT-144; format: functional, cell-based, Homo sapiens; conditions: Homo sapiens, HT-144
Description: SANGER: Inhibition of human HT-144 cell growth in a cell viability assay.

[15] = system: SW872; format: functional, cell-based, Homo sapiens; conditions: Homo sapiens, SW872;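 further: growth inhibition of SW872 cells, read out by a viability assay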
Description: SANGER: Inhibition of human SW872 cell growth in a cell viability assay.

[16] = system: NCI-H1838; format: functional, cell-based, Homo sapiens; conditions: Homo sapiens, NCI-H1838;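 further: growth inhibition of NCI-H1838 cells, determined with a cell viability readout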
Description: SANGER: Inhibition of human NCI-H1838 cell growth in a cell viability assay.

[17] = system: LB2241-RCC; format: functional, cell-based, Homo sapiens; conditions: Homo sapiens, LB2241-RCC;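 further: cell viability assay measuring how strongly the cultured human renal carcinoma line is prevented from growing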
Description: SANGER: Inhibition of human LB2241-RCC cell growth in a cell viability assay.

[18] = system: SBC-1; format: functional, cell-based, Homo sapiens; conditions: Homo sapiens, SBC-1;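 further: cell viability assay measuring growth inhibition of the SBC-1 cell line, IC50 being the concentration that halves growth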
Description: SANGER: Inhibition of human SBC-1 cell growth in a cell viability assay.

[19] = system: GR-ST; format: functional, cell-based, Homo sapiens; conditions: Homo sapiens, GR-ST
Description: SANGER: Inhibition of human GR-ST cell growth in a cell viability assay.

[20] = system: NCI-N87; format: functional, cell-based; conditions: Homo sapiens;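 further: growth inhibition of human NCI-N87 cells, read out with a cell viability assay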
Description: SANGER: Inhibition of human NCI-N87 cell growth in a cell viability assay.

[21] = system: KM-H2; format: functional, cell-based, Homo sapiens; conditions: Homo sapiens, KM-H2;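 further: growth inhibition of KM-H2 cells, read out by a cell viability assay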
Description: SANGER: Inhibition of human KM-H2 cell growth in a cell viability assay.

[22] = system: CW-2; format: functional, cell-based, Homo sapiens; conditions: Homo sapiens, CW-2;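 further: growth inhibition of CW-2 cells, read out by a cell viability assay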
Description: SANGER: Inhibition of human CW-2 cell growth in a cell viability assay.

[23] = system: HCE-T; format: functional, cell-based, Homo sapiens; conditions: Homo sapiens, HCE-T;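 further: cell viability assay read-out, reporting inhibition of HCE-T cell growth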
Description: SANGER: Inhibition of human HCE-T cell growth in a cell viability assay.

[24] = system: EW-13; format: functional, cell-based, Homo sapiens; conditions: Homo sapiens, EW-13; read-out: IC50;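 further: growth inhibition of EW-13 cells, read out with a cell viability assay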
Description: SANGER: Inhibition of human EW-13 cell growth in a cell viability assay.

[25] = system: LXF-289 cell line; format: functional, cell-based; conditions: Homo sapiens
Description: SANGER: Inhibition of human LXF-289 cell growth in a cell viability assay.

[26] = system: COLO-824; format: functional, cell-based, Homo sapiens; conditions: Homo sapiens, COLO-824
Description: SANGER: Inhibition of human COLO-824 cell growth in a cell viability assay.

[27] = system: MHH-NB-11; format: functional, cell-based, Homo sapiens; conditions: Homo sapiens, MHH-NB-11;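 further: growth inhibition of human MHH-NB-11 cells, read out by a cell viability assay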
Description: SANGER: Inhibition of human MHH-NB-11 cell growth in a cell viability assay.

[28] = system: HCC2218; format: functional, cell-based, Homo sapiens; conditions: Homo sapiens, HCC2218;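 further: cell viability assay read-out, with IC50 given as the concentration that inhibits growth of the cell line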
Description: SANGER: Inhibition of human HCC2218 cell growth in a cell viability assay.

[29] = system: HD-MY-Z; format: functional, cell-based, Homo sapiens; conditions: Homo sapiens, HD-MY-Z;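 further: growth inhibition of HD-MY-Z cells, read out with a cell viability assay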
Description: SANGER: Inhibition of human HD-MY-Z cell growth in a cell viability assay.

[30] = system: SK-MEL-2; format: functional, cell-based, Homo sapiens; conditions: Homo sapiens, SK-MEL-2;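 further: growth inhibition of human SK-MEL-2 cells measured with a cell viability assay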
Description: SANGER: Inhibition of human SK-MEL-2 cell growth in a cell viability assay.

[31] = system: MSTO-211H; format: functional, cell-based, Homo sapiens; conditions: Homo sapiens, MSTO-211H
Description: SANGER: Inhibition of human MSTO-211H cell growth in a cell viability assay.

[32] = system: KNS-42; format: functional, cell-based; conditions: Homo sapiens;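 further: growth inhibition of KNS-42 cells, read out with a cell viability assay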
Description: SANGER: Inhibition of human KNS-42 cell growth in a cell viability assay.

[33] = system: Lu-65; format: functional, cell-based, Homo sapiens; conditions: Homo sapiens, Lu-65;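 further: growth inhibition of Lu-65 cancer cells, read out by a cell viability assay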
Description: SANGER: Inhibition of human LU-65 cell growth in a cell viability assay.

[34] = system: MMAC-SF; format: functional, cell-based; conditions: Homo sapiens;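 further: growth inhibition of human MMAC-SF cells, read out with a cell viability assay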
Description: SANGER: Inhibition of human MMAC-SF cell growth in a cell viability assay.

[35] = system: KP-N-YS; format: functional, cell-based, Homo sapiens; conditions: Homo sapiens, KP-N-YS;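 further: cell viability assay measuring inhibition of cell line growth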
Description: SANGER: Inhibition of human KP-N-YS cell growth in a cell viability assay.

[36] = system: SNU-5; format: functional, cell-based, Homo sapiens; conditions: Homo sapiens, SNU-5;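 further: cell viability readout used to measure growth inhibition in human NCI-SNU-5 cells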
Description: SANGER: Inhibition of human NCI-SNU-5 cell growth in a cell viability assay.

[37] = system: OMC-1; format: functional, cell-based, Homo sapiens; conditions: Homo sapiens, OMC-1;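 further: growth inhibition of the OMC-1 cell line, measured by a cell viability assay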
Description: SANGER: Inhibition of human OMC-1 cell growth in a cell viability assay.

[38] = system: DB; format: functional, cell-based, Homo sapiens; conditions: Homo sapiens, DB
Description: SANGER: Inhibition of human DB cell growth in a cell viability assay.

[39] = system: NCI-H23; format: functional, cell-based, Homo sapiens; conditions: Homo sapiens, NCI-H23;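 further: cell viability assay measuring growth inhibition of NCI-H23 cells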
Description: SANGER: Inhibition of human NCI-H23 cell growth in a cell viability assay.

[40] = system: EW-11; format: functional, cell-based, Homo sapiens; conditions: Homo sapiens, EW-11;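 further: growth inhibition of human EW-11 cells, measured with a cell viability assay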
Description: SANGER: Inhibition of human EW-11 cell growth in a cell viability assay.

[41] = system: CGTH-W-1; format: functional, cell-based, Homo sapiens; conditions: Homo sapiens, CGTH-W-1;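 further: growth inhibition of human CGTH-W-1 cells measured by cell viability assay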
Description: SANGER: Inhibition of human CGTH-W-1 cell growth in a cell viability assay.

[42] = system: MLMA; format: functional, cell-based, Homo sapiens; conditions: Homo sapiens, MLMA;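 further: growth inhibition of MLMA cells (human), determined through a cell viability readout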
Description: SANGER: Inhibition of human MLMA cell growth in a cell viability assay.

[43] = system: OS-RC-2; format: functional, cell-based, Homo sapiens; conditions: Homo sapiens, OS-RC-2;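 further: growth inhibition of human OS-RC-2 cells, measured by a cell viability assay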
Description: SANGER: Inhibition of human OS-RC-2 cell growth in a cell viability assay.

[44] = system: ES7; format: functional, cell-based, Homo sapiens; conditions: Homo sapiens, ES7;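 further: growth inhibition of cultured human ES7 cells, read out as cell viability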
Description: SANGER: Inhibition of human ES7 cell growth in a cell viability assay.

[45] = system: SF-268; format: functional, cell-based, Homo sapiens; conditions: Homo sapiens, SF-268;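 further: growth inhibition of SF-268 cells determined with a cell viability assay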
Description: SANGER: Inhibition of human SF268 cell growth in a cell viability assay.

[46] = system: NCI-H747; format: functional, cell-based, Homo sapiens; conditions: Homo sapiens, NCI-H747;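 further: growth inhibition of human NCI-H747 cells, read out by a cell viability assay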
Description: SANGER: Inhibition of human NCI-H747 cell growth in a cell viability assay.

[47] = system: GI-ME-N; format: functional, cell-based, Homo sapiens; conditions: Homo sapiens, GI-ME-N;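 further: growth inhibition of human GI-ME-N cells, read out with a cell viability assay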
Description: SANGER: Inhibition of human GI-ME-N cell growth in a cell viability assay.

[48] = system: MPP-89; format: functional, cell-based, Homo sapiens; conditions: Homo sapiens, MPP-89;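 further: growth inhibition of human MPP-89 cells, read out with a cell viability assay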
Description: SANGER: Inhibition of human MPP-89 cell growth in a cell viability assay.

[49] = system: NCI-H1304; format: functional, cell-based, Homo sapiens; conditions: Homo sapiens, NCI-H1304;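 further: growth inhibition of the cancer cell line, measured in a cell viability assay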
Description: SANGER: Inhibition of human NCI-H1304 cell growth in a cell viability assay.

[50] = system: GOTO; format: functional, cell-based, Homo sapiens; conditions: Homo sapiens, GOTO;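 further: growth inhibition of GOTO cells, read out by a cell viability assay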
Description: SANGER: Inhibition of human GOTO cell growth in a cell viability assay.

Measured: pIC50

COc1cc(N2CCC(N3CCN(C)CC3)CC2)ccc1Nc1ncc(Cl)c(Nc2ccccc2S(=O)(=O)C(C)C)n1 [TAE-684]
5.90: [47]
6.01: [17]
6.25: [15]
5.80: [5]
6.12: [1]
6.08: [45]
5.86: [19]
6.20: [13]
6.30: [46]
5.99: [25]
5.96: [23]
5.95: [49]
6.24: [48]
6.61: [4]
< 5.70: [2] | [3] | [6] | [7] | [8] | [9] | [10] | [11] | [12] | [16] | [18] | [20] | [21] | [22] | [24] | [26] | [27] | [28] | [29] | [30] | [31] | [32] | [33] | [34] | [35] | [36] | [37] | [38] | [39] | [40] | [41] | [42] | [43] | [44] | [50]
5.79: [14]

CC1=C(/C=C/C(C)=C/C=C/C(C)=C/C(=O)O)C(C)(C)CCC1 [TRETINOIN]
5.16: [4]
5.12: [24]
5.32: [38]
6.71: [10]
< 5.00: [1] | [2] | [3] | [5] | [6] | [7] | [9] | [11] | [13] | [14] | [15] | [16] | [17] | [18] | [19] | [20] | [21] | [22] | [23] | [25] | [26] | [27] | [28] | [29] | [30] | [31] | [32] | [33] | [34] | [35] | [36] | [37] | [39] | [40] | [41] | [42] | [43] | [44] | [45] | [46] | [47] | [48] | [49] | [50]
5.60: [8]
5.41: [12]
